Common to all, as to experiment: calcium imaging (genetically encoded Ca2+ indicator), peak F/F0
What all share (format): cell-based

For assay [1], the target named is T1, mouse PIEZO1 (PIEZO1-mScarlet / PIEZO1-ALFA-mGL) (Mus musculus, UniProt E2JF22, F1715A/V1714A).
T1 construct: full-length; C-terminal mScarlet (SG linker), or ALFA tag inserted after H86 plus C-terminal mGreenLantern (SG linker); transiently expressed in N2a-P1KO (mouse Neuro-2a PIEZO1-knockout) cells; homotrimer

Assay [2] has as its target T2, mouse PIEZO1 (PIEZO1-mScarlet / PIEZO1-ALFA-mGL) (Mus musculus, UniProt E2JF22).
T2 construct: full-length; C-terminal mScarlet (SG linker), or ALFA tag inserted after H86 plus C-terminal mGreenLantern (SG linker); transiently expressed in N2a-P1KO (mouse Neuro-2a PIEZO1-knockout) cells; homotrimer

Assay [3] concerns the target T3, mouse PIEZO1 (PIEZO1-mScarlet / PIEZO1-ALFA-mGL) (Mus musculus, UniProt E2JF22, A2094W).
T3 construct: full-length; C-terminal mScarlet (SG linker), or ALFA tag inserted after H86 plus C-terminal mGreenLantern (SG linker); transiently expressed in N2a-P1KO (mouse Neuro-2a PIEZO1-knockout) cells; homotrimer

1 compound from publication PMC12712055, “3D-MINFLUX nanoscopy reveals distinct allosteric mechanisms for activation and modulation of PIEZO1 by Yoda1” (Nature Communications, 2025) can be followed below.

T2 sequence (E2JF22 whole entry): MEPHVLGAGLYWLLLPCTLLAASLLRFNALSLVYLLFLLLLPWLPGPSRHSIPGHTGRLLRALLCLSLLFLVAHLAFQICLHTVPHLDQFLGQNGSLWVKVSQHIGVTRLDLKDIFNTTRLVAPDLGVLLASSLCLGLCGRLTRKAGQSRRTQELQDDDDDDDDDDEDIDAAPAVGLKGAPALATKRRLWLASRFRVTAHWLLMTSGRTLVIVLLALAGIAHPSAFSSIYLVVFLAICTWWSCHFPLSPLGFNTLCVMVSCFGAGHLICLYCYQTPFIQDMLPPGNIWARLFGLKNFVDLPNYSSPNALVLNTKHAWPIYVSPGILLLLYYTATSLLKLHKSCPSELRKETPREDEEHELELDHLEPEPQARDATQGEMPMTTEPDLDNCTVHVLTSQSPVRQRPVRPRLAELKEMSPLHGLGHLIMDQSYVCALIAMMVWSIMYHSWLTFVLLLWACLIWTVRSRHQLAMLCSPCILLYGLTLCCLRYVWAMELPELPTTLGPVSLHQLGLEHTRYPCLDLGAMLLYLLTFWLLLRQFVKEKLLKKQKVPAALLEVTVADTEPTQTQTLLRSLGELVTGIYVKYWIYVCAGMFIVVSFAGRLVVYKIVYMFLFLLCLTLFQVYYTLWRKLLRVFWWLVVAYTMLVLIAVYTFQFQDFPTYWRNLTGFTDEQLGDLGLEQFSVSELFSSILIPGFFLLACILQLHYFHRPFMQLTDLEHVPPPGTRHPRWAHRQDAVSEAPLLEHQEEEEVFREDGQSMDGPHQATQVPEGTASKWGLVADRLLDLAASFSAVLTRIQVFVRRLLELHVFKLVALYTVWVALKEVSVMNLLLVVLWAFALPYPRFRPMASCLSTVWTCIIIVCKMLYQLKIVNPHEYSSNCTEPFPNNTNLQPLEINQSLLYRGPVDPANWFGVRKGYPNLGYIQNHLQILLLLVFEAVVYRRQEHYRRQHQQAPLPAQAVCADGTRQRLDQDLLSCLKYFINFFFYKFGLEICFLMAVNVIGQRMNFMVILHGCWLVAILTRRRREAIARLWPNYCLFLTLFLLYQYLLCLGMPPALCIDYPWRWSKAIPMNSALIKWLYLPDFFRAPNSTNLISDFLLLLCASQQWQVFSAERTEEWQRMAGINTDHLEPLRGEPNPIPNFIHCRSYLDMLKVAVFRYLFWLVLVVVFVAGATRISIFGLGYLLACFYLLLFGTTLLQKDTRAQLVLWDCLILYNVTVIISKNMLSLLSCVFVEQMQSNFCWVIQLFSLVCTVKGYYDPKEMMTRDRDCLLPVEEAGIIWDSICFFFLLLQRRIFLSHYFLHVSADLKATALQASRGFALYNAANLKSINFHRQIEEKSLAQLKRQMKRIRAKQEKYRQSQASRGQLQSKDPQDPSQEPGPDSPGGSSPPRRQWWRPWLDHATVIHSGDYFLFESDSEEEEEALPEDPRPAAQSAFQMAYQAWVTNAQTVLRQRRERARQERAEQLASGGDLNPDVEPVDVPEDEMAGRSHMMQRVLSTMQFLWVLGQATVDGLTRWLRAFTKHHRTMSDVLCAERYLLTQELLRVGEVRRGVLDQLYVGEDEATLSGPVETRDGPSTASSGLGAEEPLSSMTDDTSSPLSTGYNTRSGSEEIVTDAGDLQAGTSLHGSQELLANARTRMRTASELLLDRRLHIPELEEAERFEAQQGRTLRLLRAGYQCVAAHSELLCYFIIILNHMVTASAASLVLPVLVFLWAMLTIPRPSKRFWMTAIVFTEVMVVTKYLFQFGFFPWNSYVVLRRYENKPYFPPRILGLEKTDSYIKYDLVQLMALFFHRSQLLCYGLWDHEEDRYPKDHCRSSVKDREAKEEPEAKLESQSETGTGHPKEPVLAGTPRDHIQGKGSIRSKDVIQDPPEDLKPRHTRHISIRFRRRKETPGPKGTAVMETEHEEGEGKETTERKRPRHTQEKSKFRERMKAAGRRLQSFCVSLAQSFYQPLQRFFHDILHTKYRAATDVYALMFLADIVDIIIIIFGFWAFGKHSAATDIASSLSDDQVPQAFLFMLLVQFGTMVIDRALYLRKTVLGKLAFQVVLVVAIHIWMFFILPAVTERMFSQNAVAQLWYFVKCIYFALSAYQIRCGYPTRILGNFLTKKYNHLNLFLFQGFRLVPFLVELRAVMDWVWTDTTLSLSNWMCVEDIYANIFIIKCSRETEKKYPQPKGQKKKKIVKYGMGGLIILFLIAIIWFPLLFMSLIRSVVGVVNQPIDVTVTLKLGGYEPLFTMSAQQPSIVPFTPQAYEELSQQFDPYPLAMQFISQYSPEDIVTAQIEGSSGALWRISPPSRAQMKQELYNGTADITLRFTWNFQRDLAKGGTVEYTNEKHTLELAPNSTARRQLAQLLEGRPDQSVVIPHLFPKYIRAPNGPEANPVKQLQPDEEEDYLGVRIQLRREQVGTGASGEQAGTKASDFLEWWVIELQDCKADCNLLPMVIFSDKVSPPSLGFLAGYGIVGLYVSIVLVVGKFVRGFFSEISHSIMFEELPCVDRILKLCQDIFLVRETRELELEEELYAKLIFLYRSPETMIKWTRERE
T1 sequence (E2JF22 whole entry V1714A/F1715A): as the sequence (E2JF22 whole entry) above, with V1714A, F1715A counted along it
T3 sequence (E2JF22 whole entry A2094W): as the sequence (E2JF22 whole entry) above, with A2094W counted along it

`O=C(O)c1ccc(-c2nnc(SCc3c(Cl)cccc3Cl)s2)cc1` [Yoda2]: the EC50 in assay [1] was found to be 0.067 µM; in assay [2], 0.03 µM; in assay [3] it was 7.03 µM.
